target: Cav2.3 (Homo sapiens, UniProt Q15878); experiment: Human Cav2.3 channel calcium-influx assay; assay type: cell-based; conditions: HEK-293 T-Rex/Kir2.1/Cav2.3e-β4-α2δ1 cells, Fluo8 fluorescence, without pluronic acid; read-out: Cav2.3 (pIC50) (converted)
Protocol: HEK-293 T-Rex cells were transfected with pcDNA3.1-Kir2.1 to generate a stable cell line. After antibiotic selection, the obtained stable pools were analysed using FLIPR^TETRA (membrane potential assay), and a limiting dilution was performed and a HEK-293 T-Rex/Kir2.1 clone was selected. The clone was transfected with pcDNA3.1-Cav2.3e and pBud-Cav-β4-α2δ1 to generate a stable cell line where the Cav2.3e expression is inducible. After antibiotic selection, functional clone pool analysis and two successive limiting dilutions, the final clone underwent a qPCR analysis and a biophysical and pharmacological validation using patch-clamp.
A compound plate, containing 10 test compounds in eight-points dose response with n=4, was prepared. Test compounds dose response curves were prepared in automated fashion in 100% DMSO at CyBio Felix and starting from a stock solution in 100% DMSO; a defined volume was serially moved into destination wells pre-filled with the desired DMSO volume; stock solution concentration volumes were dependent on the final compounds concentrations to be tested and the final DMSO content used in the assay. For the assay test compounds dose response curves ranged from 30 μM and half log dilution with 0.3% final DMSO. In order to obtain the 8-points dose response curve all the concentrations were created by starting from a 10 mM DMSO stock solution and then moving 9.5 μL into a destination well pre-filled with 20.5 μL of 100% DMSO and repeating this step seven times. This initial step was done into 96 MTP plates, 10 compounds/plate. One 384 MTP was then reformatted to contain all the 10 compounds at 8 concentrations, quadruplicate data points. This so obtained 384 MTP compound plate served as source plate in a “mother to child” process with a CyBi®-Well dispenser in which 0.7 μL of compounds were moved into a destination plate pre-filled with 57.6 μL of Tyrode's buffer 0 mM K+, thus obtaining 4× concentrated compounds solution. In columns 1-2 and 23-24 the control wells were added. Both “source” compound plate and “destination” compound plate were barcoded and a relationship between the two plates was thus generated.
The day before the experiment, cells were detached by gentle wash with DPBS, followed by 5 min incubation at 37° C. with Trypsin solution. Detached cells were diluted with OptiMEM+Doxycycline at 0.2 μg/mL, counted and plated in Poly-D-Lysine coated black/clear bottom (15.000 c/well in 20 μl/well) by the use of a MATRIX WellMate dispenser. Plates were placed into a humidified incubator at 37° C. with 5% CO2 until the experimental day. 24 h after seeding 10 μL/well of 1.5× Fluo8 NW dye solution prepared in Tyrode's buffer 0 mM K^+ were added on top of the seeding medium. Cell plates were incubated for 40-60 min at RT in the dark. We then Injected off-line 10 μL/well of test compounds and controls 4× concentrated in Tyrode's Buffer 0 mM K+ with the CyBi®-Well instrument. Cell plates were incubated 3 minutes at RT. Finally, we injected 20 μL/well of 3× concentrated activator solution (K20-Na130-Ca2 buffer: 20 mM KCl, 130 mM NaCl, 2 mM CaCl2, 10 mM HEPES, 10 mM Glucose, final concentrations, prepared starting from “KO-Na150-Ca2” and “K150-Na0-Ca2” buffers) at FDSS7000EX instrument and read emitted fluorescence for 130 seconds.
Data analysis was performed with Genedata Screener® software and reported compounds activity as % effect in relation to the normalization standards. The Kinetic Response Value (KRV) is calculated as follows:
KRV=Maximal fluorescence recorded from second 5 to second 130 minus baseline fluorescence, computed as average from second 1 to second 2, of the kinetic trace. The KRV was normalized versus Neutral Controls and Inhibitor Controls in order to obtain the Activity[%] for each well. […] Therefore, the compound activity values were scaled (based on the two references) to a common range (two-point normalization). […]

Chain of Cav2.3 (Q15878 1-747 limits assumed): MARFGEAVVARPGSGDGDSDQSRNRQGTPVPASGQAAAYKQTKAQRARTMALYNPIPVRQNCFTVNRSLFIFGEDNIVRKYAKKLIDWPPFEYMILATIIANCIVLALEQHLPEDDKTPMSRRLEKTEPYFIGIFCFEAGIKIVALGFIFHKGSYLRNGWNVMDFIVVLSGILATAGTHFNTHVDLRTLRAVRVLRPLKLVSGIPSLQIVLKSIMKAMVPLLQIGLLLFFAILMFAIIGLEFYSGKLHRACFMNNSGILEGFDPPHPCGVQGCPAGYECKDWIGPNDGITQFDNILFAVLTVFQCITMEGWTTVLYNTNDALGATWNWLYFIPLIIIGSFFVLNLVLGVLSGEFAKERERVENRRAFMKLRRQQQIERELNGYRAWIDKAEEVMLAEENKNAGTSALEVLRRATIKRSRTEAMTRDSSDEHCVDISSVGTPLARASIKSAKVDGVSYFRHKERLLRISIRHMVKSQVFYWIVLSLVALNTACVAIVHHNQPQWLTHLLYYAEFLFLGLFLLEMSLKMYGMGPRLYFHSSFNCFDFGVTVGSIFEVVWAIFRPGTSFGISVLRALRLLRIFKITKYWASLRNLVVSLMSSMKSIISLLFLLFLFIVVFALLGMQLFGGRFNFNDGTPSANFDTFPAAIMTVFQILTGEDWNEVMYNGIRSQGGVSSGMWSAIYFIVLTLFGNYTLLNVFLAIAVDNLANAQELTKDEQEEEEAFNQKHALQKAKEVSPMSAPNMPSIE
Chain of Cav2.3 (Q15878 1126-2313 limits assumed): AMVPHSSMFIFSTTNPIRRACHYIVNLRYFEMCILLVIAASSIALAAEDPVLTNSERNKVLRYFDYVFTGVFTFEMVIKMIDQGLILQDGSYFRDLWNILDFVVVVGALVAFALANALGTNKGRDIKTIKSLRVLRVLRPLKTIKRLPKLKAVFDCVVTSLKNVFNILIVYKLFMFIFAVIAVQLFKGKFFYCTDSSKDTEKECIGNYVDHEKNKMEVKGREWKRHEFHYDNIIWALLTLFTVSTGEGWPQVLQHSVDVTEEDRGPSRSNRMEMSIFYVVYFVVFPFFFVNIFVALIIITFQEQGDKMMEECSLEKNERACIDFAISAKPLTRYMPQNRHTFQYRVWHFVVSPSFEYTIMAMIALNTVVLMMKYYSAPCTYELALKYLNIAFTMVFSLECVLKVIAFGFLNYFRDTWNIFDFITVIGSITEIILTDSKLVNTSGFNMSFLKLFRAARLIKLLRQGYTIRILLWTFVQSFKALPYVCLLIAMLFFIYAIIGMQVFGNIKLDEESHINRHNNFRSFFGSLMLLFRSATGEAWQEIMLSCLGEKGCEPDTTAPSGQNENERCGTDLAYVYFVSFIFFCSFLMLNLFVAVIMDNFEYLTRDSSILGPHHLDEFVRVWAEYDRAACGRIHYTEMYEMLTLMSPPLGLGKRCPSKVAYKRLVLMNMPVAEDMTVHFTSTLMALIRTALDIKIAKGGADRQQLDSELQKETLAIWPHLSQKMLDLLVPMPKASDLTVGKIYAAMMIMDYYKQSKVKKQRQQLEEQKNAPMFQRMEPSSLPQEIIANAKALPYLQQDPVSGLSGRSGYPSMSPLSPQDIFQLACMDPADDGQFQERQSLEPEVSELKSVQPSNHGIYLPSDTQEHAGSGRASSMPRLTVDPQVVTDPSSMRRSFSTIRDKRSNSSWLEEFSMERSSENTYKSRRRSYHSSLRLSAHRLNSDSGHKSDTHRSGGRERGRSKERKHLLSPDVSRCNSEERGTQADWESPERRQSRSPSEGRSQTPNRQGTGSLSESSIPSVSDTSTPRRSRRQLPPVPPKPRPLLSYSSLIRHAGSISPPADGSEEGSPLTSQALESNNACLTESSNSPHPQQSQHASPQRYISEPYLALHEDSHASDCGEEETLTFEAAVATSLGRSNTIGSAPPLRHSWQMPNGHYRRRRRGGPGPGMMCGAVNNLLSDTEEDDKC

IC50 [µM] | SMILES
39.8 | CC1CC2(CCC2)CN1S(=O)(=O)c1ccc2oncc2c1 (centres unmarked) [Example 68, 5-((7-Methyl-6-azaspiro[3.4]octan-6-yl)sulfonyl)benzo[d]isoxazole]
1.78 | CCC1CC2(CCC2)CN1S(=O)(=O)c1ccc2c(c1)S(=O)(=O)CC2 (centres unmarked) [Example 61, 6-((7-Ethyl-6-azaspiro[3.4]octan-6-yl)sulfonyl)-2,3-dihydrobenzo[b]thiophene 1,1-dioxide]
11.2 | CC1CC2(CCC2)CN1S(=O)(=O)c1scnc1CO (centres unmarked) [Example 90, (5-((7-Methyl-6-azaspiro[3.4]octan-6-yl)sulfonyl)thiazol-4-yl)methanol]
5.01 | CC1CC2(CCC2)CN1S(=O)(=O)c1ccc(F)s1 (centres unmarked) [Example 110, 6-((5-fluorothiophen-2-yl)sulfonyl)-7-methyl-6-azaspiro[3.4]octane]
9.33 | CCOc1ccc2nc(S(=O)(=O)N3CC4(CCC4)CC3C)sc2c1 (centres unmarked) [Example 96, 6-Ethoxy-2-((7-methyl-6-azaspiro[3.4]octan-6-yl)sulfonyl)benzo[d]thiazole]
8.91 | CC1CC2(CCC2)CN1S(=O)(=O)c1cncnc1 (centres unmarked) [Example 83, 7-Methyl-6-(pyrimidin-5-ylsulfonyl)-6-azaspiro[3.4]octane]
4.9 | Cc1ccc(S(=O)(=O)N2CC3(CCC3)CC2C)o1 (centres unmarked) [Example 53, 7-Methyl-6-((5-methylfuran-2-yl)sulfonyl)-6-azaspiro[3.4]octane]
3.89 | CC1(C)CC2(CCC2)CN1S(=O)(=O)c1ccsc1 [Example 49, 7,7-Dimethyl-6-(thiophen-3-ylsulfonyl)-6-azaspiro[3.4]octane]
1.35 | COc1cc(S(=O)(=O)N2CC3(CCC3)CC2C)ccn1 (centres unmarked) [Example 86, 6-((2-Methoxypyridin-4-yl)sulfonyl)-7-methyl-6-azaspiro[3.4]octane]
5.25 | CC1CC2(CCC2)CN1S(=O)(=O)c1ccco1 (centres unmarked) [Example 36, 6-(Furan-2-ylsulfonyl)-7-methyl-6-azaspiro[3.4]octane]
8.13 | Cc1ccc(S(=O)(=O)N2CC3(CCC3)CC2C)o1 (single isomer, unassigned) [Example 54, 7-Methyl-6-((5-methylfuran-2-yl)sulfonyl)-6-azaspiro[3.4]octane]
19.1 | CC1CC2(CCC2)CN1S(=O)(=O)c1cccc2c1CN(C(=O)C(F)(F)F)CC2 (centres unmarked) [Example 85, 2,2,2-Trifluoro-1-(8-((7-methyl-6-azaspiro[3.4]octan-6-yl)sulfonyl)-3,4-dihydroisoquinolin-2(1H)-yl)ethan-1-one]
11.5 | CC1CC2(CCC2)CN1S(=O)(=O)c1cc2oc(=O)[nH]c2cc1Cl (single isomer, unassigned) [Example 58, 5-chloro-6-((7-methyl-6-azaspiro[3.4]octan-6-yl)sulfonyl)benzo[d]oxazol-2(3H)-one]
7.76 | CC1CC2(CCC2)CN1S(=O)(=O)c1ccccc1 (single isomer, unassigned) [Example 46, 7-Methyl-6-(phenylsulfonyl)-6-azaspiro[3.4]octane]
1.66 | CC1CC2(CCC2)CN1S(=O)(=O)c1ccncc1 (single isomer, unassigned) [Example 13, 7-methyl-6-(pyridin-4-ylsulfonyl)-6-azaspiro[3.4]octane]
2.57 | CC1CC2(CCC2)CN1S(=O)(=O)c1ccc(C#N)s1 (centres unmarked) [Example 8, 5-((7-Methyl-6-azaspiro[3.4]octan-6-yl)sulfonyl)thiophene-2-carbonitrile]
5.13 | CC1CC2(CCC2)CN1S(=O)(=O)c1cc2oc(=O)[nH]c2cc1Cl (single isomer, unassigned) [Example 57, 5-Chloro-6-((7-methyl-6-azaspiro[3.4]octan-6-yl)sulfonyl)benzo[d]oxazol-2(3H)-one]
2.19 | Cc1nc(C)c(S(=O)(=O)N2CC3(CCC3)CC2C)s1 (single isomer, unassigned) [Example 106, 2,4-Dimethyl-5-((7-methyl-6-azaspiro[3.4]octan-6-yl)sulfonyl)thiazole]

IC50 [µM] | SMILES
1.32 | CC1CC2(CCC2)CN1S(=O)(=O)c1ccc2ccoc2c1 (single isomer, unassigned) [Example 17, 6-(benzofuran-6-ylsulfonyl)-7-methyl-6-azaspiro[3.4]octane]
24.5 | O=S(=O)(c1cccs1)N1CC2(CCC2)CC1CO (centres unmarked) [Example 42, (6-(Thiophen-2-ylsulfonyl)-6-azaspiro[3.4]octan-7-yl)methanol]
3.39 | CC1CC2(CCC2)CN1S(=O)(=O)c1ccco1 (single isomer, unassigned) [Example 38, 6-(furan-2-ylsulfonyl)-7-methyl-6-azaspiro[3.4]octane]
7.24 | CC1CC2(CCC2)CN1S(=O)(=O)c1ccc2c(c1)OCCO2 (single isomer, unassigned) [Example 6, 6-((2,3-Dihydrobenzo[b][1,4]dioxin-6-yl)sulfonyl)-7-methyl-6-azaspiro[3.4]octane]
10 | COCc1ncsc1S(=O)(=O)N1CC2(CCC2)CC1C (centres unmarked) [Example 89, 4-(Methoxymethyl)-5-((7-methyl-6-azaspiro[3.4]octan-6-yl)sulfonyl)thiazole]
3.39 | CC1CC2(CCC2)CN1S(=O)(=O)c1ccccc1 (centres unmarked) [Example 45, 7-Methyl-6-(phenylsulfonyl)-6-azaspiro[3.4]octane]
30.2 | CC1CC2(CCC2)CN1S(=O)(=O)c1nccn1C (centres unmarked) [Example 3, 7-Methyl-6-((1-methyl-1H-imidazol-2-yl)sulfonyl)-6-azaspiro[3.4]octane]
46.8 | CC1CC2(CCC2)CN1S(=O)(=O)c1ncccn1 (centres unmarked) [Example 14, 7-Methyl-6-(pyrimidin-2-ylsulfonyl)-6-azaspiro[3.4]octane]
4.27 | CC1CC2(CCC2)CN1S(=O)(=O)Cc1ccccc1 (centres unmarked) [Example 2, 6-(Benzylsulfonyl)-7-methyl-6-azaspiro[3.4]octane]
2.4 | CCC1CC2(CCC2)CN1S(=O)(=O)c1ccc2ccoc2c1 (centres unmarked) [Example 91, 6-(Benzofuran-6-ylsulfonyl)-7-ethyl-6-azaspiro[3.4]octane]
7.76 | Cc1cnc(S(=O)(=O)N2CC3(CCC3)CC2C)s1 (centres unmarked) [Example 95, 5-Methyl-2-((7-methyl-6-azaspiro[3.4]octan-6-yl)sulfonyl)thiazole]
2.51 | CCC1CC2(CCCC2)CN1S(=O)(=O)c1cccs1 (centres unmarked) [Example 97, 3-Ethyl-2-(thiophen-2-ylsulfonyl)-2-azaspiro[4.4]nonane]
4.17 | CC1CC2(CCC2)CN1S(=O)(=O)c1ccc2c(c1)OCCCO2 (centres unmarked) [Example 4, 6-((3,4-Dihydro-2H-benzo[b][1,4]dioxepin-7-yl)sulfonyl)-7-methyl-6-azaspiro[3.4]octane]
1.7 | CC1CC2(CCCC2)CN1S(=O)(=O)c1cccs1 (centres unmarked) [Example 73, 3-Methyl-2-(thiophen-2-ylsulfonyl)-2-azaspiro[4.4]nonane]
9.33 | CCC1CC2(CCC2)CN1S(=O)(=O)c1ccc2c(c1)OC(F)(F)O2 (centres unmarked) [Example 50, 6-((2,2-Difluorobenzo[d][1,3]dioxol-5-yl)sulfonyl)-7-ethyl-6-azaspiro[3.4]octane]
6.03 | CC1CC2(CCN1S(=O)(=O)c1cccs1)CC2 (centres unmarked) [Example 74, 5-Methyl-6-(thiophen-2-ylsulfonyl)-6-azaspiro[2.5]octane]
8.32 | CC(=O)Nc1nnc(S(=O)(=O)N2CC3(CCC3)CC2C)s1 (centres unmarked) [Example 40, N-(5-((7-methyl-6-azaspiro[3.4]octan-6-yl)sulfonyl)-1,3,4-thiadiazol-2-yl)acetamide]
